Data taken from patent US8197864B2, “Preparation, process and a regenerative method and technique for prevention, treatment and glycemic control of diabetes mellitus” (Arjuna Natural Extracts, priority 2004, dated 2012).

Tested on: normal rats
Assay: Hypoglycemic activity of fractions on blood sugar level in fasted normal rats
Format: in vivo, Sprague dawley rats
Conditions: glybenclamide 1 mg/kg, metformin 150 mg/kg; for blood sugar level, 1 hr: 1 hr after single oral dose: fractions 100 mg/kg; for blood sugar level, 3 hr: 3 hr after single oral dose: fractions 100 mg/kg; for blood sugar level, 5 hr: 5 hr after single oral dose: fractions 100 mg/kg; for blood sugar level, Fasting: fasting value before administration, single oral dose: fractions 100 mg/kg; for effect on blood glucose level (in words): single oral dose after 4 hours of fasting: fractions 100 mg/kg
Experimental: Activity of different extracts were tested using Sprague dawley rats of either sex aged 3 months weighing 180-200 g. After 3-4 hrs of fasting the rats were divided into 7 groups of 6 in each, one group kept as control and 4 groups were given different fractions (Fraction I, Fraction III, Fraction IV and Fraction V) of extract in the dose of 100 mg/kg. Sixth and seventh groups were given standard drugs glybenclamide (1 mg/kg) and metformin (150 mg/kg) respectively.
(See Table II, graph I) The extract/drug was administered orally (single dose) after 4 hours of fasting. […] In FIG. 2, the graph provides blood glucose level in normal rats in mg/dl measured over a duration of 5 hours. The normal rats were fed with different fractions of the extract after four hours of fasting.

| Compound | blood sugar level, 1 hr | blood sugar level, 3 hr | blood sugar level, 5 hr | blood sugar level, Fasting | effect on blood glucose level (in words) |
| --- | --- | --- | --- | --- | --- |
| COc1ccc(Cl)cc1C(=O)NCCc1ccc(S(=O)(=O)NC(=O)NC2CCCCC2)cc1 [Glybenclamide, glybenclamide] | *58.8 ± 9.8 mg/dl | *43.3 ± 8.2 mg/dl | *43.2 ± 5.8 mg/dl | 72.6 ± 8.6 mg/dL | significant (p<0.05) decrease in blood glucose level in the first hour |
| CN(C)C(=N)N=C(N)N [Metformin, metformin] | 70.6 ± 3.0 mg/dL | 68.3 ± 2.6 mg/dL | *61.5 ± 3.0 mg/dl | 76.6 ± 4.1 mg/dL | significant (p<0.05) decrease in blood glucose level in the fifth hour |
